In US20230167101A1, “NOVEL INHIBITORS OF HISTONE […] P300/CBP FOR CANCER THERAPY” (BAYLOR COLLEGE OF MEDICINE, priority 2020, published 2023):
“Also recorded” adds a separate entry of the source.

Assays:
[1] = target: T1, human CBP HAT (Homo sapiens, UniProt Q92793); assay: CBP HAT inhibition assay; format: biochemical; settings: read-out: IC50 against CBP HAT
T1 construct: made in house
Source text: (§1) Humans have three classes of histone/protein lysine acetyltransferases with distinct conserved motifs and structures, including p300/CBP, Gcn5-related N-acetyltransferase (GNAT) and MYST (MOZ, Ybf2, Sas2 and Tip60) family of HATs. […] CBP is a homolog of p300. […] PCAF (p300/CBP associating factor) is a member of the GNAT family, while Myst3 belongs to the MYST family of HATs.
The HAT domain (1195-1673) of human p300 was cloned, inserted into pGEX-KG vector and the DNA sequence was verified by sequencing. The p300-HAT expression plasmid was transformed into E. coli BL21-CodonPlus strain (Agilent) and cultured at 37° C. in LB medium containing ampicillin (50 µg/mL) and chloramphenicol (34 µg/mL). After the optical density of the bacterial culture reached ~0.9 at 600 nm, p300 HAT expression was induced by adding 300 µM isopropylthiogalactoside (IPTG) at 18° C. for 48 hours. Cells were collected, lysed, centrifuged for 20 min at 20,000 rpm. The supernatant was subjected to column chromatography with glutathione sepharose resins. […]
To determine inhibitory activity, a compound with concentrations ranging from 100 nM to 10 µM was incubated with p300-HAT (10 nM) in 20 µL of 50 mM phosphate buffer (pH = 7.0) containing 0.01% Brij-35 for 10 min at 25° C. […] Radioactivity on the filter paper was measured with a Beckman LS-6500 scintillation counter. […]

[2] = target: T2, PCAF (Homo sapiens, UniProt Q92831); assay: PCAF HAT inhibition assay; format: biochemical
T2 construct: made in house
Source text: as §1
The HAT domain (1195-1673) of human p300 was cloned, inserted into pGEX-KG vector and the DNA sequence was verified by sequencing. The p300-HAT expression plasmid was transformed into E. coli BL21-CodonPlus strain (Agilent) and cultured at 37° C. in LB medium containing ampicillin (50 µg/mL) and chloramphenicol (34 µg/mL). After the optical density of the bacterial culture reached ~0.9 at 600 nm, p300 HAT expression was induced by adding 300 µM isopropylthiogalactoside (IPTG) at 18° C. for 48 hours. Cells were collected, lysed, centrifuged for 20 min at 20,000 rpm. The supernatant was subjected to column chromatography with glutathione sepharose resins. The recombinant GST-p300-HAT fusion protein was obtained in ~90% purity (SDS-PAGE) by elution with 10 mM of glutathione solution, which was further purified using a Superdex 200 gel filtration column chromatography. CBP, PCAF and Myst3 HATs were obtained using similar methods.
To determine inhibitory activity, a compound with concentrations ranging from 100 nM to 10 µM was incubated with p300-HAT (10 nM) in 20 µL of 50 mM phosphate buffer (pH = 7.0) containing 0.01% Brij-35 for 10 min at 25° C. Histone H3 peptide (1-21) (20 µM) and Acetyl-CoA (1 µM ^3H—Ac—CoA and 19 µM Ac—CoA) were added to initiate the reaction. After 30 min at 25° C., the reaction was stopped by adding 6 N formic acid (5 µL). 20 µL of reaction mixture was then transferred to a small piece of P81 filter paper (Whatman) that binds histone H3 peptide. The filter paper was washed 3x with 50 mM NaHCO3, dried, and transferred into a scintillation vial containing 2 mL of scintillation cocktail. Radioactivity on the filter paper was measured with a Beckman LS-6500 scintillation counter. […]

[3] = target: T3, Myst3 (Homo sapiens, UniProt Q92794); assay: Myst3 HAT inhibition assay; format: biochemical
T3 construct: made in house

[4] = tested on: Kasumi-1 leukemia cells; assay: Cellular histone acetylation, Western blot; format: cell-based; settings: Kasumi-1 cells, 12 h, 5 and 10 µM
Experimental: Kasumi-1 leukemia cells were treated with increasing concentrations of these compounds for 12 h. Histone was extracted and subjected to electrophoresis separation and Western blot staining to determine levels of acetylation at various lysine residues. […] H3K27 seems to be the most sensitive cellular substrate of p300 HAT. […] This might be due to different mode of inhibition or cell permeability for the two compounds.
About 10^6 Kasumi-1 cells per well were incubated with compound 11 at 0, 5 and 10 µM for 12 hours. Histone proteins were extracted using EpiQuik total histone extraction kit (Epigentek), according to the manufacturer’s protocol. Equal amounts of histones (2 µg) were separated on SDS-PAGE and transferred to PVDF membranes. The blots were probed with primary antibodies against H3K9Ac, H3K18Ac, H3K27Ac and H3 (Cell Signaling), followed by anti-rabbit IgG (Thermo Scientific) secondary antibodies.

[5] = tested on: PANC-1; assay: Cell growth inhibition, PANC-1 (MTT); format: cell-based; settings: PANC-1, 5 days; read-out: EC50, antiproliferative activity
Experimental: (§2) The anti-proliferation assays for non-breast cancer cells were done using a previously developed assay. In brief, for Kasumi-1 cells, […] were added into 96-well plates and cultured with increasing concentrations of a compound in RPMI-1640 medium supplemented with 20% fetal bovine serum and penicillin (100 U/mL) and streptomycin (100 µg/mL) at 37° C. in a 5% CO2 atmosphere with 100% humidity. For solid tumor cells, 10^5 cells per well were added into 96-well plates and cultured in Dulbecco’s Modified Eagle’s Medium (DMEM) supplemented with 10% fetal bovine serum and penicillin (100 U/mL) and streptomycin (100 µg/mL) overnight. Upon addition of increasing concentrations of a compound, cells were incubated for 5 days. Cell viability was assessed by using an XTT assay kit (Roche) for leukemia cells or an MTT assay (Sigma) for attachment cells. For the breast cancer MCF-7 cells, culture and inhibition assays were performed according to our previous methods in Ref. 25 and 26. Compound EC50 values were calculated from dose response curves using Prism 5.0.

[6] = tested on: Kasumi-1; assay: Cell growth inhibition, Kasumi-1 (XTT); format: cell-based; settings: Kasumi-1, 5 days; read-out: EC50, antiproliferative activity
Experimental: as §2

T2 sequence (Q92831 whole entry): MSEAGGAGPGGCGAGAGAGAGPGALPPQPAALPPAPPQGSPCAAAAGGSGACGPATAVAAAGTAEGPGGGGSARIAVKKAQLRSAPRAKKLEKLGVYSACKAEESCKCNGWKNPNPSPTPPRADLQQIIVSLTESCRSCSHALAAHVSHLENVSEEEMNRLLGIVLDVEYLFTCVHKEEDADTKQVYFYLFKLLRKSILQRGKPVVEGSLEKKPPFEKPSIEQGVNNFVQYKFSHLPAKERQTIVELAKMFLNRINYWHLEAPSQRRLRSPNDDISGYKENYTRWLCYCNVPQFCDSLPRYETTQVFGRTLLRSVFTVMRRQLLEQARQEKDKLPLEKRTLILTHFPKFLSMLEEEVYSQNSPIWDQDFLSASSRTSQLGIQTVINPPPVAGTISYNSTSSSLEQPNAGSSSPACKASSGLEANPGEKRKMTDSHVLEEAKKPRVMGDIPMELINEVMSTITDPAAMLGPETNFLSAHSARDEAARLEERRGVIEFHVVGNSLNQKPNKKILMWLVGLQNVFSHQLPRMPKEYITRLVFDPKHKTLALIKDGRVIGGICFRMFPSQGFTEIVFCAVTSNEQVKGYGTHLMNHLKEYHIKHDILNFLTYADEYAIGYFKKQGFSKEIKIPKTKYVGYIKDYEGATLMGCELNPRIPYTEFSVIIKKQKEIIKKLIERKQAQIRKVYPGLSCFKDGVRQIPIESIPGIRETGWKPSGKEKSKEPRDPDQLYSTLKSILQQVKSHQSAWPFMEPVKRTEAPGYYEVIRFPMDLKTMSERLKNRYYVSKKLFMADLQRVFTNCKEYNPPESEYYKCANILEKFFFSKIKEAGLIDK
T3 sequence (Q92794 whole entry): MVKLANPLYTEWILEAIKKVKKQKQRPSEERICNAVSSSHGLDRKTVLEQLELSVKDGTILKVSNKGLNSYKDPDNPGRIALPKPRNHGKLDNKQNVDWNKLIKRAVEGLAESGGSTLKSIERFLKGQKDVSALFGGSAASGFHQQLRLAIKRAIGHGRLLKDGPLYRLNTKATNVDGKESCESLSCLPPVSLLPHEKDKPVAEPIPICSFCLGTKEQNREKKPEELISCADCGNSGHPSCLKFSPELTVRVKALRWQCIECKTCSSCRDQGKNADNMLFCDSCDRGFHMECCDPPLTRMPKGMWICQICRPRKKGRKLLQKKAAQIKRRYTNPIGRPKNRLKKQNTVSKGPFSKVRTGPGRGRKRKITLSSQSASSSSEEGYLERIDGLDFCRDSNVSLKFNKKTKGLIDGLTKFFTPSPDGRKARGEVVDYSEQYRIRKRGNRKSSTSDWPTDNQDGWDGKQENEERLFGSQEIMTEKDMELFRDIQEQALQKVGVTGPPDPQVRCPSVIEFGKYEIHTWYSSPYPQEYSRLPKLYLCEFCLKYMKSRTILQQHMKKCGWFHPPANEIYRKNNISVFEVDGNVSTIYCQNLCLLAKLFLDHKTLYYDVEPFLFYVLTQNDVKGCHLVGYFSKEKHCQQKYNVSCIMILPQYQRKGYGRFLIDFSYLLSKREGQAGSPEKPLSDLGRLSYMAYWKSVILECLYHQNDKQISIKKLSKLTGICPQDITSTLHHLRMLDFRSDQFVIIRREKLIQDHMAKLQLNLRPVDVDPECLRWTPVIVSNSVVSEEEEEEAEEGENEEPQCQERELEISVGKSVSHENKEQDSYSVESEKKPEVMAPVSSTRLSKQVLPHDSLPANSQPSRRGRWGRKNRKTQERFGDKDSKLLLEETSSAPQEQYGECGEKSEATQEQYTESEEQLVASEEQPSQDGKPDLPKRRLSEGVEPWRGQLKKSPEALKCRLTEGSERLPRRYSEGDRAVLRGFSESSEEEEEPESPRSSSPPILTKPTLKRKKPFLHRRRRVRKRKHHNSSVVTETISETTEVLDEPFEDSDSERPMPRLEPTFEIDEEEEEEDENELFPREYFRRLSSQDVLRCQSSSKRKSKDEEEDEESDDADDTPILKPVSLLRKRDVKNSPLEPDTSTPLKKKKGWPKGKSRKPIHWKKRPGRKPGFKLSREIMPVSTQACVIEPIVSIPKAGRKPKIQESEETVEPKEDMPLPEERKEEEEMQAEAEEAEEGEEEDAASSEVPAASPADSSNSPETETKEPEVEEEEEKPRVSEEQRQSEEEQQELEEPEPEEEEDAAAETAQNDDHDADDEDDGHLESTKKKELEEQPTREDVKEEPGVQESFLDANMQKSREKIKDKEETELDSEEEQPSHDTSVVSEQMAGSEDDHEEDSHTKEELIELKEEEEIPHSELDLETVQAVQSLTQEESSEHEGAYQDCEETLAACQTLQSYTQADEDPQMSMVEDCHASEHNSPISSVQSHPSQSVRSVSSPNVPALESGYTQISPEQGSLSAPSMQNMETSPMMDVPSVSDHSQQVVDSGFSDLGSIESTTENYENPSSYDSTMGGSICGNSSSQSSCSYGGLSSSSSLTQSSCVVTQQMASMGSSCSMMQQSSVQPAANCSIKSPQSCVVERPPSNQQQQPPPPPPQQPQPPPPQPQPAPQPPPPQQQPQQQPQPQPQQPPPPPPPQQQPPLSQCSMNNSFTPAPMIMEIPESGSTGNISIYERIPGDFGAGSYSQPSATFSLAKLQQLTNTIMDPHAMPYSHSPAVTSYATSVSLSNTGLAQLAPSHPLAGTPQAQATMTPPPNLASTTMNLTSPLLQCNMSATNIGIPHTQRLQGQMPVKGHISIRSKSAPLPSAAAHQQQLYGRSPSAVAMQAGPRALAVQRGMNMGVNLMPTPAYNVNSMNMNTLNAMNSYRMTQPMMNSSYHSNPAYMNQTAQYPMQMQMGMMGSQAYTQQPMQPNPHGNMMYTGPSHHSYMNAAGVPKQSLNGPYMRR
T1 sequence (Q92793 1323-1700 limits assumed): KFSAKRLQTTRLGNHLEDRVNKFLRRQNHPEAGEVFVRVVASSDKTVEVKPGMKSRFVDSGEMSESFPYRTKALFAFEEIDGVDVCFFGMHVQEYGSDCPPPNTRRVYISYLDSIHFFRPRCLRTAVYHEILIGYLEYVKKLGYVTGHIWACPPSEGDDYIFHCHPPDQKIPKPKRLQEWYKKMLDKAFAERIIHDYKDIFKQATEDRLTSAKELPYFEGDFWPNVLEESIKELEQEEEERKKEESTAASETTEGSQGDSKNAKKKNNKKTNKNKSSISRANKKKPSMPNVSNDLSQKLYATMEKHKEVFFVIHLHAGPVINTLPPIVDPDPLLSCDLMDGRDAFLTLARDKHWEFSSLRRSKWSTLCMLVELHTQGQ

CC(C)(C)c1ccc(-c2cc(CNCC3CCNCC3)sc2-c2ccc(C(C)(C)C)cc2)cc1 [Compound 12]
IC50 [1]: 1200 nM | inhibition of PCAF ([2]; at 20 µM): < 10% | inhibition of PCAF activity (in words) ([2]; at 20 µM): did not significantly inhibit | IC50 ([2]; read-out: IC50 against PCAF): > 20000 nM | inhibition of Myst3 ([3]; at 20 µM): < 10% | inhibition of Myst3 activity (in words) ([3]; at 20 µM): did not significantly inhibit | IC50 ([3]; read-out: IC50 against Myst3): > 20000 nM | cellular acetylation of histone H3K9, H3K18 and H3K27 [4]: significantly inhibit; also recorded: inhibited | EC50 [5]: 1000 nM | EC50 [6]: 2600 nM
